Experimental data published in US8455009B2, “Amniotic membrane preparations and purified compositions and anti-inflammation methods” (TissueTech, Inc., priority 2005, dated 2013).

How the values were obtained:
Raw264.7 cells = assay: NO assay (nitrite, Griess reagent) in Raw264.7 macrophages; format: cell-based, mouse; details: 500 μM inhibitor; cells cultured on AM
Procedure: Raw 264.7 cells, a mouse macrophage cell line, were obtained from the ATCC and cultured in phenol red-free Dulbecco's modified Eagle's medium (DMEM) supplemented with 10% fetal bovine serum, 50 μg/ml gentamicin, and 1.25 μg/ml fungizone in 100 mm culture dishes. When cells became 70%-80% confluent, the medium was removed and cells were treated with trypsin/EDTA for 10 min at 25° C. After digestion, cells were still firmly attached to the dish, so the trypsin/EDTA solution was removed. […] After centrifugation at 500×g for 5 min, the medium was removed, the cell pellet resuspended in the DMEM/ITS medium, cells counted, and cell density adjusted to 0.5×10^6/ml. […]
At the end of the cultivation, the cell culture medium in each well was harvested individually and centrifuged at 12,000×g for 10 min at 4° C. […] NO production was assessed by measuring the nitrite, its stable degradation product, using Griess reagent according to the manufacturer's protocol. Briefly, 50 μl of the cleared medium was mixed with 100 μl of the Griess reagents (ICN Biomedicals, Aurora, Ohio), after 15 min the absorbance was measured at 550 nm using Fusion™ universal microplate analyzer (Packard, Meriden, Conn.). The amount of nitrite was calculated from a standard curve of sodium nitrite (NaNO2; Sigma, St. Louis, Mo.).

Raw 264.7 cells = assay: Hoechst-33342 nuclear staining of macrophages; format: cell-based, mouse; details: 500 μM inhibitor; cells on AM with IFN γ
Source text: To determine if the aforementioned cell death was mediated by apoptosis, cells in parallel experiments were subjected to Hoechst-33342 staining. Fragmented nuclei with strong Hoechst staining were found more in AM/IFN γ as compared to AM without IFN γ and to their plastic controls. Percentages of Hoechst-33342-positive apoptotic nuclei were 12.4±2.7% (PL), 16.5±3.1% (PL/IFN γ), 14.7±1.1% (AM), and 63.8±7.9% (AM/IFN γ). There was no statistical difference between PL and PL/IFN γ and between PL and AM (all p>0.05), while there was a statistical difference between AM and AM/IFN γ and between PL/IFNγ and AM/IFNγ (all p<0.001). […] In contrast, there was no such giant cell in AM/IFNγ cultures.

TGF-β1 promoter = TGF-β1 promoter suppression (adenoviral promoter-luciferase) in human corneal fibroblasts; format: cell-based
Procedure: When human corneal fibroblasts cultured on 100 mm plastic dish in DMEM/10% FBS reached 80% confluency (˜1.0×10^6 cells), cells were washed twice with DMEM/10% FBS. Adenoviruses-TGF-β1 promoter-luciferase (MOI=37.5) and Adeno-CMV-beta-gal (MOI=30) were added to the culture plates with 10 ml of the fresh DMEM/10% FBS and cells were incubated at 37° C. for 4 hours, and trypsinized for 5 minutes using 4 ml prewarmed trypsin/EDTA. After trypsin/EDTA activity was neutralized with 8 ml of DMEM/10% FBS, cells were collected into a 15 ml tube and centrifuged at 1,500 rpm (˜600×g) for 5 min. After decanting the medium, cells were resuspended in 15 ml DMEM/10% FBS, and cell viability was measured by trypan blue stain. Viable 3×10^4 cells were seeded on a plastic 24 well or on the stromal surface of AM inserts. A total of 4 wells or inserts were prepared. Cells were then incubated at 37° C. in a CO2 incubator for 48 hours.
After carefully removing the growth medium from each well, cells were rinsed with 0.5 ml PBS at lease twice, taking care not to dislodge attached cells. After removing as much as PBS in the well, 100 μl 1× lysis buffer was added to cover the cells, and cells were mechanically scraped and transferred to a microcentrifuge tube placed on ice. Cell lysates were collected by vortexing for 10-15 sec and centrifuging at 12,000×g for 15 sec at room temperature. […]

[1] = test system: human corneal fibroblasts; assay: Cell morphology and density of human corneal fibroblasts after treatment; format: cell-based; details: HA alone; low concentrations of AME or jelly extracts
Source text: The above changes were even more dramatic in lyophilized AME or L/AME than their non-lyophilized counterparts in AME or Jelly extracts, respectively (FIG. 6).

Molecule | IFN γ induced nitrite level with NO synthase inhibitor (Raw264.7 cells) [µM] | extent of macrophage apoptosis with NO synthase inhibitor (Raw 264.7 cells) | suppressive activity on TGF-β1 promoter, HA alone (TGF-β1 promoter; 100 μg/ml) | suppression of TGF-β1 promoter activation (TGF-β1 promoter; compared to the PBS control, normalized with beta-galatosidase activity, FIG. 5) | change in cell morphology [1]
CC(=N)NCCCC[C@H](N)C(=O)O.Cl [L-NIL, L-N-6-(1-iminoethyl) lysine hydrochloride] | 14.0 ± 9.8 | not significantly attenuated | – | – | –
CC(=O)O.CNC(=N)NCCC[C@H](N)C(=O)O [L-NMMA, NG-monomethyl-L-arginine acetate] | 19.8 ± 4.9 | not significantly attenuated | – | – | –
hyaluronic acid [HA] | – | – | mild suppressive activity | showed suppression | no change in cell morphology
